Experimental data from patent US8901177B2, “Method of treating bladder disorders” (Targacept, Inc., priority 2012, dated 2014).
Read-outs that look alike come from different tables or passages of the source.

Tests used:
[1] = tested on: bladder function in conscious rats; experiment: Intravesical model in conscious rats, first study (UROsphere), cystometry; assay type: in vivo, rat; conditions: tolterodine 10 μM, TC-5213 1 and 10 μM, hexamethonium 10 μM, TC-5214 0.1, 1 and 10 μM
Text: (1) In a first study (performed by UROsphere), female Sprague Dawley rats (200-270 g) from Charles River France, housed in 3-4 rats per cage were anesthetized with isoflurane (1.5-3%). […], a polyethylene catheter was implanted in the bladder through the dome and exteriorized at the scapular level. Each rat was housed individually after surgery. The cystometry is depicted in FIG. 2. This is the first known experiment using the intravesical model in conscious rats to test dexmecamylamine for potential efficacy in treating OAB.
The effects of dosing dexmecamylamine (also referred to as TC-5214 and as TI-11179), at doses of 0.1, 1, and 10 μM are depicted in FIG. 4.
The effects of dosing hexamethonium (10 μM) and tolterodine (10 μM) are depicted in FIG. 5.

[2] = TC-5213 28-day repeated oral toxicity study in rats; assay type: in vivo, rat
Experimental: Eighty rats (40/sex) were assigned to 4 groups of 10/sex/group. Test article in purified water or water (vehicle) alone were administered once daily via oral gavage at a dose volume of 10 mL/kg. The dose levels were 0, 1, 10, and 50 mg/kg/day. Animals were given TC-5213-23 orally (gavage) for 28 days except those given the test article at 50 mg/kg from Day 1 to 7, followed by a dose of 40 mg/kg/day on the subsequent 21 days. The dose levels were calculated based on the free base form of the test article.

[3] = target: NMDA receptor NR1a-NR2A (Homo sapiens, UniProt Q05586+Q12879); experiment: Glutamate-evoked currents at NR1a-NR2A receptors in Xenopus oocytes (two electrode voltage-clamp); assay type: cell-based; conditions: for recovery following wash-out: after sustained exposure
Sequence of NMDA receptor NR1a-NR2A (Q12879 23-1464, other chains not shown): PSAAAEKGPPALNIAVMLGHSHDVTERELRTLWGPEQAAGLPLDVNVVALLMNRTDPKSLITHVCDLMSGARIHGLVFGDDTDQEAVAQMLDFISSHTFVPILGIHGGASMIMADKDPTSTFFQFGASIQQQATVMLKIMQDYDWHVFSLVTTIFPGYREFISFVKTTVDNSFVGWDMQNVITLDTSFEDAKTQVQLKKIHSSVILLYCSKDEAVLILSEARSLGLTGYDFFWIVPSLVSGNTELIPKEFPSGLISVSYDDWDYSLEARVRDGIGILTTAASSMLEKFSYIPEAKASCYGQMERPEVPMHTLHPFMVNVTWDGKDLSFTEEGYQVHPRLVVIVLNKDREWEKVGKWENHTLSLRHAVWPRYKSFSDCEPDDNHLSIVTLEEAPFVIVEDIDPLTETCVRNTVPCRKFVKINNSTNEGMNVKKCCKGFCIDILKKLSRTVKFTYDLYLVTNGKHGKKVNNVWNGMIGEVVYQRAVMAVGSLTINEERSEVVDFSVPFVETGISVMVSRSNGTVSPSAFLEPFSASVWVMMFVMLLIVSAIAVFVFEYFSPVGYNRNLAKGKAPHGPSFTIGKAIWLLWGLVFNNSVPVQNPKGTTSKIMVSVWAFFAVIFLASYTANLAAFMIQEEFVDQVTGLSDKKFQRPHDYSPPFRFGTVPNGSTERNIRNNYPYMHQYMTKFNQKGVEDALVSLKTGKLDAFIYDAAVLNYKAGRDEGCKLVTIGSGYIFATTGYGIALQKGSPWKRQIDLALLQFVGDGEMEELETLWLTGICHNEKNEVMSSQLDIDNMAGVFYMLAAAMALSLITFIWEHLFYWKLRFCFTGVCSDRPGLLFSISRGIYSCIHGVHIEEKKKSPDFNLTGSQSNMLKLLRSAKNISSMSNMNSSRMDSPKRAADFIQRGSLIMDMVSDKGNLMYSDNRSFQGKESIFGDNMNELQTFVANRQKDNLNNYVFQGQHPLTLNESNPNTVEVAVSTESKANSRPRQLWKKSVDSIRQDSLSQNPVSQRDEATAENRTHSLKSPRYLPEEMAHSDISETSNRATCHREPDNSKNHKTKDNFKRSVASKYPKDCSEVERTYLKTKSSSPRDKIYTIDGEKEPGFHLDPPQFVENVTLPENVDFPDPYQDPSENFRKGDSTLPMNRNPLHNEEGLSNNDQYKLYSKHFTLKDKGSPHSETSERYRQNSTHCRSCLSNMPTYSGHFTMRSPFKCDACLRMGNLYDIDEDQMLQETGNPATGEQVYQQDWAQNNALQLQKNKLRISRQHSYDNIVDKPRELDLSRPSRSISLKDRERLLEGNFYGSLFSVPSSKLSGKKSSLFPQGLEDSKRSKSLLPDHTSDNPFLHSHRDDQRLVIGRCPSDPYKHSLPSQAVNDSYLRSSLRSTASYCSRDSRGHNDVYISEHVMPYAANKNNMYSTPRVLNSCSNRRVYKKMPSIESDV
Experimental: All experiments were carried out at receptors expressed in Xenopus oocytes using the method of cDNA expression. Currents evoked by glutamate were recorded using the standard two electrode voltage-clamp configuration (TVEC). Xenopus oocytes were prepared and injected using standard procedures.
Briefly, ovaries are harvested from Xenopus Laevis females that have been deeply anesthetized and pithed following the animal rights rule from the Geneva canton. A small piece of ovary is isolated for immediate preparation while the remaining part is placed at 4° C. in a sterile Barth solution containing in mM NaCl 88, KCl 1, NaHCO3 2.4, HEPES 10, MgSO4.7H2O 0.82, Ca(NO3)2.4H2O 0.33, CaCl2.6H2O 0.41, at pH 7.4, and supplemented with 20 μg/ml of kanamycine, 100 unit/ml penicillin and 100 μg/ml streptomycin. On the second day following dissociation, oocytes are injected with 2 ng of cDNA per oocyte containing the NR1a-NR2A or NR1a-NR2B using an automated injector (Hogg et al., J. Neurosci. Methods, 2008). […] Cells were held at −80 mV. Data were filtered at 10 Hz, captured at 100 Hz and analyzed using HiQ proprietary data acquisition and analysis software running under Matlab (Mathworks Inc.).
Oocytes expressing the NR1a-NR2A or NR1a-NR2B receptors were challenged at periodic intervals with a glutamate test pulse. Test drug was then applied during a sustained period and its effects monitored by measuring the amplitude and time course of the glutamate evoked currents.
Experiments were carried out with the NR1a-NR2A and NR1a-NR2B at least in triplicate. Positive reference compounds (ketamine and MK-801) were tested using the same protocol.
To further evaluate effects of TC-5214, experiments using sustained exposure to this compound followed by a recovery period were carried out at NR1a-NR2A and NR1a-NR2B receptors. Measurements were made with (nM) 0, 3, 10, 30, 100, 300, TC-5214 and recovery monitored during 10 minutes. In addition, the same experimental protocol will be used with cells in control conditions to assess the stability of the measurements. Effects were measured in at least three cells.
A use-dependent protocol was used to identify non-competitive inhibition of the receptors. Cells expressing the NMDA receptors were tested for their sensitivity to TC-5214 at 30 nM, using the same protocol as described above. Cells from the same batch were tested in parallel using the same incubation time with an identical concentration of TC-5214 (30 nM) but in absence of pulses during the incubation time with the compound. Two glutamate pulses were applied at the end of the incubation time, and recovery monitored as for the control conditions.

[4] = tested on: nicotinic receptors expressed in rat urinary bladder epithelial cells; conditions: intravesical; nicotine 0.05 and 1 μM, hexamethonium 10 and 100 μM, choline 10 and 100 μM; cited from earlier work
[5] = target: T1, human α3β4 channels (Homo sapiens, UniProt P30926+P32297); experiment: Use-dependent inhibition of human α3β4 channels expressed in CHO cells (Dynaflow electrophysiology); assay type: cell-based
T1 construct: host or cells: CHO cells
T1 sequence (P32297 32-505): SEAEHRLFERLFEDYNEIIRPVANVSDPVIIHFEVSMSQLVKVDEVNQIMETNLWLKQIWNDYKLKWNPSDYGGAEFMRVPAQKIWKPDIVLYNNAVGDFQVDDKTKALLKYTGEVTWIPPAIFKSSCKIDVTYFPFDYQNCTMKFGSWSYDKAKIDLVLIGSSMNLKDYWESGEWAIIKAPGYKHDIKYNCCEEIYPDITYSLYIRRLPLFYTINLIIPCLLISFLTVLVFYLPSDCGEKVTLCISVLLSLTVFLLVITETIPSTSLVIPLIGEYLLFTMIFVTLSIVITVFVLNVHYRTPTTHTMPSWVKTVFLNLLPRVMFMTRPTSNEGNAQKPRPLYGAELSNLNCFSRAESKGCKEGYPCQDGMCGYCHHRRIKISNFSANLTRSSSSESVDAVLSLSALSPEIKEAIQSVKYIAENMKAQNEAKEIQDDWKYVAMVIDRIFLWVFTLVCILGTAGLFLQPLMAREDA
T1 sequence (P30926 22-498): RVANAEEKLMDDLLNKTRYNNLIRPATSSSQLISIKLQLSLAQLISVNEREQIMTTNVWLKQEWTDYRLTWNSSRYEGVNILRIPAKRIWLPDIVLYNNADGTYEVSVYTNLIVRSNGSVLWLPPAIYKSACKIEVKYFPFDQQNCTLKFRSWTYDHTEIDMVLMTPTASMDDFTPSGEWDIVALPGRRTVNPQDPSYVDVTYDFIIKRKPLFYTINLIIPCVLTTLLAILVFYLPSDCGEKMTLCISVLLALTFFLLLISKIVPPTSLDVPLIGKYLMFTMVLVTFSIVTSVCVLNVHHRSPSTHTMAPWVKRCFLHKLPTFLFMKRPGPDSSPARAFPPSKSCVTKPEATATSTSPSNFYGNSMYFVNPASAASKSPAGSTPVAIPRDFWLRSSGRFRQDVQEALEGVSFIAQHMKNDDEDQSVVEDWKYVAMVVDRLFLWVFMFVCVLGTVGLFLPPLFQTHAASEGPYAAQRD
Experimental: There was an assumption that the dependence on the number of co-applications would be the most relevant to clinical concentrations, since upon the time of exposure in vivo, the number of open channels could reach substantial numbers; perhaps due to channel spontaneous opening, flickering, and endogenous transmitter release as a result of brain activity. All experiments were performed using a conventional Dynaflow (Cellectricon Inc.) electrophysiological system. Dynaflow settings: To achieve continuous exposure to the drug we used following Dynaflow chip loading. An example of standard chip loading for use-dependent experiments with example for 30 μM ACh and 0.1 μM of TC-05231 (racemic mecamylamine). For the following experiments, ACh always consisted of 30 μM and concentrations of compounds were, 0.03, 0.1, 0.3 and 1.0 (μM). FIG. 13 illustrates the settings.
Applications were performed by positioning the cell in front of channel #1 for 1 second, followed by channel #3, then back to channel #1 by rapidly moving the Dynaflow chip, which consisted of both the laminar flow from the channels and the entire bath solution. The additional channels between control and ACh-containing channel were used: (1) to provide the needed space for an additional washout to avoid contaminating the control channels with the agonist solution; and (2) to allow for the necessary amount of time for the Dynaflow stage to reach its optimum scanning speed.
3.1. Establishment of recording baseline: First, pipette with cells moved to channel #3. Then cells were exposed to ACh by moving cells to channel #1 for 1 second and back to channel #3. This movement of cells was repeated 10 times at 30 second intervals;
3.2. Collection data on use-dependent inhibition: After establishment of stable baseline, cells were moved to channel #6 and exposed to a test compound for 30 sec. Then cells were moved to channel #8 for 1 second and back to channel #6 for 30 seconds (total 10 times with intervals 30 seconds); and 3.3. To test reversibility of block (washout): repeat step 1. Note: with this chip setting, during repeated application of acetylcholine plus test compound, there was no interruption in application of compounds. For all calculations, peak current amplitude was normalized to the peak current amplitude evoked by the 10th application of acetylcholine. Experimental Results

[6] = racemic Inversine 2.5 mg BID, spinal cord injury subjects; cited from earlier work
[7] = tested on: bladder function in anesthetized rats; experiment: Intravesical model in anesthetized rats (increased bladder contraction frequency), cystometry; assay type: in vivo, rat; conditions: 10 μM intravesical
Experimental: Female Sprague Dawley rats (200-290 g) from Charles River France, housed in 3-4 rats per cage were anesthetized with urethane (1.2 g/kg) s.c., 3 mL/kg). A polyethylene catheter was implanted into the bladder through the dome. Ureters were tied and cut. Intravesical infusion periods with saline followed by an intravesical infusion period with one of the test compounds, hexamethonium (10 μM) or dexmecamylamine (1 and 10 μM), are depicted in FIG. 7.
The intravesical anesthetized rat model is a model of increased bladder contraction frequency. The model is a “simplified” well established model used to evaluate OAB agents, recognizing that there are decreased inputs from cortical centers. This is the first known experiment using the intravesical anesthetized rat model of increased bladder contraction frequency to test dexmecamylamine for potential efficacy in treating OAB.

[8] = 50 mg/kg/day oral, first week, after three to seven doses

## Cc1ccc(O)c([C@H](CCN(C(C)C)C(C)C)c2ccccc2)c1 [tolterodine]
[1]
  significant effects in cystometry: significant effects

## CN[C@]1(C)[C@H]2CC[C@H](C2)C1(C)C [TC-5213, exo-R-mecamylamine]
[1]
  significant effects in cystometry: significant effects
[2]; 50 mg/kg/day oral
  distended urinary bladder, full of urine, in early dead animals: females: 2
  distended urinary bladder, full of urine, in early dead animals: males: 3
[2]; [8]
  early deaths, females: 5/10
  early deaths, males: 4/10
[2]; 50→40 mg/kg/day daily oral
  mortality, organ weight and microscopic changes: resulted in mortality, organ weight and/or microscopic changes
[2]; 28 days oral, males and females
  No-Observed-Effect-Level (NOEL): 1 mg/kg/day
[2]; rat, in vivo
  opthalmological examinations: No test article related changes
[2]; rat, in vivo, 40 mg/kg/day
  clinical pathology changes: slight increases in neutrophils; slight decreases in lymphocyte and platelets; slight increases in ALT, AST, and calcium
  organ weights at necropsy: decreased organ weights of prostate gland, seminal vesicles and thymus

## CNC1(c2ccccc2Cl)CCCCC1=O (stereo not shown) [ketamine, reference compound]
[3]
  recovery following wash-out: clear evidence for recovery

## CN1CCCC1c1cccnc1 (stereo not shown) [nicotine]
[4]
  significant effects on nicotinic receptors expressed in rat urinary bladder epithelial cells: significant effects

## CNC1(C)C2CCC(C2)C1(C)C.Cl (racemic) [TC-5231, N,2,3,3-tetramethylbicyclo[2.2.1]heptan-2-amine hydrochloride, reference compound]
[5]; 100 nM compound, after 10 co-applications of 30 uM Ach and compound, hydrochloride
  Inhibition by (%): 25% ± 7%
[5]; CHO, 30 nM compound + 30 μM ACh, successive grid rows = co-applications 1 to 10, control = 100, read-out: peak current amplitude normalized to 10th ACh application, use-dependent inhibition box
  activity at 0.03 µM: 99.3%
[5]; CHO, 100 nM compound + 30 μM ACh, successive grid rows = co-applications 1 to 10 at 30 s intervals, control = 100, read-out: peak current amplitude normalized to 10th ACh application, use-dependent inhibition box
  activity at 0.1 µM: 94.5%
[5]; CHO, 100 nM compound with acetylcholine, read-out: inhibition of human α3β4 receptor (asymptotes to the curve, FIG. 14)
  inhibition at 0.1 µM: 20%
[5]; CHO, 100 nM compound, after 10 co-applications of 30 uM Ach and compound, read-out: Inhibition by (%)
  inhibition at 0.1 µM: 24.8%
[5]; after 100 nM compound, following 10 application of Ach (30 uM) alone
  recovery (%): 105% ± 11%
[5]; after 30 and 100 nM compound, agonist alone
  recovery / persistence of inhibition after wash out: full recovery
[6]
  bladder electric potential (amplitude of contraction): decrease in bladder electric potential (amplitude of contraction)

## C[C@]12N[C@H](Cc3ccccc31)c1ccccc12 [MK-801, reference compound]
[3]
  recovery following wash-out: little evidence of recovery
[3]; sustained exposure, glutamate test pulses
  inhibition by positive control: nearly complete inhibition

## C[N+](C)(C)CCCCCC[N+](C)(C)C [hexamethonium]
[7]
  changes in the frequency of bladder contraction: meaningful changes
[4]
  significant effects on nicotinic receptors expressed in rat urinary bladder epithelial cells: significant effects
